Results: patent US6676932B2, “Ultraviolet absorbent, photostabilizer, ultraviolet ray-absorbing composition, photostabilized composition and external preparation for skin” (Shiseido Co., Ltd., priority 2001, dated 2004)

How the values were obtained:
[1] = Dye stabilization effect under daylight exposure (Test Examples 6-91); assay type: physicochemical; parameters: key to Δ E: color difference ΔE in Lab vs. color before daylight exposure; key to Appearance (visual determination): ◯: no change; Δ: almost no change; x: change; settings: photostabilizer 0.05 wt %, daylight exposure (80 MJ)
In short: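 Test samples exposed to daylight to 80 MJ; appearance judged visually. Colour measured by spectrophotometer in Lab coordinates, with ΔE calculated relative to pre-exposure values (L1, a1, b1).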

[2] = Stability test in combination with inorganic powder-based ultraviolet shielding agent, sunscreen cream (Test Example 5); assay type: physicochemical; settings: sunscreen cream with inorganic powders; ultraviolet absorbent 10.0 wt %; 50° C. for 2 months; visual observation
Method: A sunscreen cream of the following formulation was prepared and stored at 50° C. for 2 months. Under visual observation of the color change, the stability of the inventive pyridazine derivative in combination with inorganic powder-based ultraviolet screening agents commonly in blend as external preparations for skin for the purpose of ultraviolet prevention was examined.
After the ingredient 2 was added to the ingredient 1 to swell the ingredient 2, the ingredients 3 to 11 were mixed with the resulting mixture under heating, for sufficient dispersion and dissolution. While keeping the dispersion at 70° C., a solution of the mixture of the ingredients 12 to 15 was gradually added to the dispersion under thorough emulsification with a homomixer. The resulting mixture was cooled to 30° C. under sufficient stirring to prepare sunscreen creams.

[3] = Drug stabilization effect under daylight exposure (Test Examples 182 to 211); assay type: physicochemical; parameters: key to Appearance (visual determination): ◯: no change; Δ: almost no change; x: change; settings: photostabilizer 0.05 wt %, daylight exposure (80 MJ); for Remaining ratio (%): liquid chromatography
Method: For observation of the change of the appearance of each test sample (determination based on visual observation) and the measurement of the remaining ratio by liquid chromatography before and after daylight exposure (80 MJ), the test sample was prepared.

sunburn = experiment: Ultraviolet preventive effect, application test on beach in summer (Test Example 2); assay type: in vivo, human
Method: An application test was carried out on beach in summer. Equal volumes of samples were individually coated on back halves of subjects. After exposure to direct daylight, the degree of sunburn was assessed according to the following assessment standards. Each group consists of 10 subjects.
Prominently effective: none or almost no sunburn symptom was observed.
Effective: light sunburn symptom was observed.
Ineffective: strong sunburn symptom was observed.
⊚: prominently effective or effective for 80% or more of the subjects.
◯: prominently effective or effective for 50% or more to less than 80% of the subjects.
Δ: prominently effective or effective for 30% or more to less than 50% of the subjects.
x: prominently effective or effective for less than 30% of the subjects.
The aqueous phase and the alcohol phase were separately prepared and then mixed together.
Propylene glycol was added to and dissolved in ion exchange water. The resulting solution was retained at 70° C. under heating (aqueous phase). Other ingredients were mixed […]. The resulting mixture was melted under heating and retained at 70° C. (oil phase). The oil phase was added to the aqueous phase, for preliminary emulsification with a homomixer to homogeneity. Under thorough mixing, subsequently, the mixture was cooled to 30° C.

[4] = Drug stabilization effect blended with sequestering agent (Test Examples 372 to 391); assay type: physicochemical; parameters: key to Appearance (visual determination): ◯: no change; Δ: almost no change; x: change; settings: drug Salicylic acid 0.1, photostabilizer blend amount 0.03, daylight exposure (80 MJ)
In short: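 Compositions combining the pyridazine derivative with sequestering agents were exposed to daylight (80 MJ). Appearance was judged visually, and drug remaining ratio was measured by liquid chromatography before and after exposure.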

[5] = Dye stabilization effect in blend with sequestering agents (Test Examples 212 to 275); assay type: physicochemical; settings: dye Red 227 (Acid Fuchsine D) 0.0001, photostabilizer 0.01, daylight exposure (80 MJ)
In short: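 Colour difference (ΔE) measured by spectrophotometer in Lab coordinates before and after daylight exposure (80 MJ), relative to pre-exposure values (L1, a1, b1); appearance change also assessed visually.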

[6] = Stabilization effect on perfume under daylight exposure (Test Examples 92 to 181); assay type: physicochemical; parameters: key: ◯: no change; Δ: almost no change; x: change; settings: daylight exposure (80 MJ)
Method: Each test sample was prepared for observation of the change of the odor of the test sample (determined by perfume coordinator) before and after daylight exposure (80 MJ).

[7] = Photostability test of aqueous solutions under daylight (Test Example 4); assay type: physicochemical; settings: aqueous solution, daylight for 2 weeks (80 MJ)
Method: Aqueous solutions of the pyridazine derivative of the invention were exposed to daylight for 2 weeks (at a daylight exposure of 80 MJ). Subsequently, the remaining ratio and the change of the appearance were examined to measure the ultraviolet spectra with a spectrophotometer (solvent: water; concentration of 10 ppm and optical path length of 1 cm). The area under ultraviolet spectra curve from 290 nm to 400 nm were determined by integration to compare the area with the area before daylight exposure.
The remaining ratio and the change of the area under the ultraviolet spectrum were determined on the basis of the following standards.
⊚: 95% or more of those before daylight exposure.
◯: 90% or more to less than 95% of those before daylight exposure.
Δ: 70% or more to less than 90% of those before daylight exposure.
x: less than 70% of those before daylight exposure.

[8] = dye Blue 1 (Brilliant Blue FCF) 0.0001 wt %
[9] = dye Green 3 (Fast Green FCF) 0.001 wt %
[10] = dye Red 227 (Acid Fuchsine D) 0.0001 wt %
[11] = dye Yellow 5 (Sunset Yellow FCF) 0.001 wt %
[12] = dyes Red 213 (Rhodamine B) 0.00001 + Blue 1 (Brilliant Blue FCF) 0.00001 wt %
[13] = dyes Red 227 (Acid Fuchsine D) 0.0001 + Yellow 5 (Sunset Yellow FCF) 0.0001 wt %
[14] = dyes Red 401 (Violanin R) 0.0001 + Blue 1 (Brilliant Blue FCF) 0.00001 wt %
[15] = drug L-ascorbic acid 2-glucoside 2.0 wt %
[16] = drug dibutylhydroxytoluene 0.01 wt %
[17] = drug dl-α-tocopherol 2-L-ascorbic acid phosphate diester potassium salt 0.01 wt %

For `Oc1nncc(N2CCCCC2)c1N1CCCCC1` [4,5-Dipiperidino-3-hydroxypyridazine], the “Appearance (visual determination)” value [1, 8] was “◯”, the “Δ E” value [1, 8] was 1.22 and the “Appearance (visual determination)” value [1, 9] was “◯”. For the same compound, the “Δ E” value [1, 9] was 0.45, the “Appearance (visual determination)” value [1, 10] was “◯” and the “Δ E” value [1, 10] was 0.53. The “Appearance (visual determination)” value [1, 11] was “◯”, the “Δ E” value [1, 11] was 0.55 and the “Appearance (visual determination)” value [1, 12] was “◯”. The “Δ E” value [1, 12] was 1.11, the “Appearance (visual determination)” value [1, 13] was “◯” and the “Δ E” value [1, 13] was 0.63. For the same compound, the “Appearance (visual determination)” value [1, 14] was “◯”, the “Δ E” value [1, 14] was 0.38 and the Color change [2] was “no”. For the same compound, the “Appearance (visual determination)” value [3, 15] was “◯”, the “Remaining ratio (%)” value [3, 15] was 99.3% and the “Appearance (visual determination)” value [3, 16] was “◯”. The “Remaining ratio (%)” value [3, 16] was 99.0%, the “Appearance (visual determination)” value [3, 17] was “◯” and the “Remaining ratio (%)” value [3, 17] was 99.1%. For the same compound, the “Appearance (visual determination)” value ([3]; drug salicylic acid 0.1 wt %) was “◯”, the “Remaining ratio (%)” value ([3]; drug salicylic acid 0.1 wt %) was 99.6% and the Ultraviolet prevention effect (sunburn; cream, blend amount 0.0005 wt %) was “Δ (prominently effective or effective for 30% or more to less than 50% of the subjects)”. For the same compound, the Ultraviolet prevention effect (sunburn; cream, blend amount 0.001 wt %) was “◯ (prominently effective or effective for 50% or more to less than 80% of the subjects)”, the Ultraviolet prevention effect (sunburn; cream, blend amount 0.01 wt %) was “⊚ (prominently effective or effective for 80% or more of the subjects)” and the Ultraviolet prevention effect (sunburn; cream, blend amount 1 wt %) was “⊚ (prominently effective or effective for 80% or more of the subjects)”. For the same compound, the Ultraviolet prevention effect (sunburn; cream, blend amount 5 wt %) was “⊚ (prominently effective or effective for 80% or more of the subjects)”, the Ultraviolet prevention effect (sunburn; cream, blend amount 10 wt %) was “⊚ (prominently effective or effective for 80% or more of the subjects)” and the Ultraviolet prevention effect (sunburn; cream, blend amount 20 wt %) was “⊚ (prominently effective or effective for 80% or more of the subjects)”. The Ultraviolet prevention effect (sunburn; lotion, blend amount 0.0005 wt %) was “Δ (prominently effective or effective for 30% or more to less than 50% of the subjects)”, the Ultraviolet prevention effect (sunburn; lotion, blend amount 0.001 wt %) was “◯ (prominently effective or effective for 50% or more to less than 80% of the subjects)” and the Ultraviolet prevention effect (sunburn; lotion, blend amount 0.01 wt %) was “⊚ (prominently effective or effective for 80% or more of the subjects)”. The Ultraviolet prevention effect (sunburn; lotion, blend amount 1 wt %) was “⊚ (prominently effective or effective for 80% or more of the subjects)”, the Ultraviolet prevention effect (sunburn; lotion, blend amount 5 wt %) was “⊚ (prominently effective or effective for 80% or more of the subjects)” and the Ultraviolet prevention effect (sunburn; lotion, blend amount 10 wt %) was “⊚ (prominently effective or effective for 80% or more of the subjects)”. For the same compound, the Ultraviolet prevention effect (sunburn; lotion, blend amount 20 wt %) was “⊚ (prominently effective or effective for 80% or more of the subjects)”, the “Appearance (visual determination)” value ([4]; no sequestering agent) was “Δ” and the “Appearance (visual determination)” value ([4]; with ethylenediamine tetraacetate trisodium 0.03) was “◯”. The “Δ E” value ([5]; no sequestering agent) was 0.98, the “Δ E” value ([5]; with ethylenediaminehydroxyethyl trisodium triacetate 0.02) was 0.52 and the “Δ E” value ([5]; with ethylenediaminetetraacetate trisodium 0.02) was 0.72. For the same compound, the “Δ E” value ([5]; with sodium metaphosphate 0.02) was 0.61, the odor determination ([6]; base perfume Rose, photostabilizer 0.05 wt %) was “◯” and the odor determination ([6]; base perfume Spicy, photostabilizer 0.2 wt %) was “◯”. For the same compound, the odor determination ([6]; base perfume Woody, photostabilizer 0.1 wt %) was “◯”, the odor determination ([6]; natural perfume Lavender oil, photostabilizer 0.1 wt %) was “◯” and the odor determination ([6]; natural perfume Rose oil, photostabilizer 0.05 wt %) was “◯”. For the same compound, the odor determination ([6]; natural perfume Ylang ylang oil, photostabilizer 0.2 wt %) was “◯”, the odor determination ([6]; synthetic perfume Citral, photostabilizer 0.1 wt %) was “◯” and the odor determination ([6]; synthetic perfume Linalool, photostabilizer 0.05 wt %) was “◯”. For the same compound, the odor determination ([6]; synthetic perfume Linalyl acetate, photostabilizer 0.1 wt %) was “◯”, the Remaining ratio [7] was “⊚ (95% or more of those before daylight exposure)” and the “Change of area under ultraviolet spectrum” value ([7]; 290 nm to 400 nm) was “⊚ (95% or more of those before daylight exposure)”.
